Peptide text beside a SMILES is read from it.
Assays:
[1] = system: skeletal muscle (gastrocnemius) glucose uptake; experiment: In vivo skeletal muscle 2-deoxyglucose (2DG) uptake; design: species or system mouse (C57BL/6J)
Procedure: 2-deoxyglucose (2-DG) uptake experiment: Male C57BL/6J mice at 14–15 weeks of age were received sham injection (injected nothing) for seven days before the experiment to acclimated to the invasive stimulus by the injection. A selective CK2 inhibitor CX-4945 (MCE) was dissolved in 0.9% saline containing 5% DMSO. After 120 min of fasting, mice were intraperitoneally injected with a CK2 inhibitor at 25 mg/kg or vehicle.[45] Two hours later, mice were injected insulin at 0.75 U/kg (MilliporeSigma) and MOTS-c at 7.5 mg/kg (GenScript) or sterilized water. Then 10 min later, 5 μg of 2DG (Sigma-Aldrich) was injected.[46] Mice were euthanized 45 min after 2DG injection and gastrocnemius muscle was collected. The collected samples were stored at −80°C for further analyses. The entire gastrocnemius muscle was used for the analysis to avoid potential bias.
To measure glucose uptake into mouse skeletal muscle, 2-DG uptake measurement kit was used (Cosmo Bio). Gastrocnemius muscle samples were homogenized in 10 mM tris-HCL (pH. 8.1) and then incubated at 95°C for 15 min. Samples were centrifuged for 15 min at 17,800 g (4°C), and the supernatant was diluted in 10 mM tris-HCl.[66] Diluted samples ([…]) were used for further analysis according to the manufacturer’s instructions (Cosmo Bio Co.).

CK2α = biological target: T1, CK2α (Homo sapiens, UniProt P68400); experiment: Surface plasmon resonance (Biacore assay), CK2α; format: binding; settings: SPR, peptide immobilized, CK2α flowed
T1 construct: purchased GenScript
T1 sequence (P68400 whole entry): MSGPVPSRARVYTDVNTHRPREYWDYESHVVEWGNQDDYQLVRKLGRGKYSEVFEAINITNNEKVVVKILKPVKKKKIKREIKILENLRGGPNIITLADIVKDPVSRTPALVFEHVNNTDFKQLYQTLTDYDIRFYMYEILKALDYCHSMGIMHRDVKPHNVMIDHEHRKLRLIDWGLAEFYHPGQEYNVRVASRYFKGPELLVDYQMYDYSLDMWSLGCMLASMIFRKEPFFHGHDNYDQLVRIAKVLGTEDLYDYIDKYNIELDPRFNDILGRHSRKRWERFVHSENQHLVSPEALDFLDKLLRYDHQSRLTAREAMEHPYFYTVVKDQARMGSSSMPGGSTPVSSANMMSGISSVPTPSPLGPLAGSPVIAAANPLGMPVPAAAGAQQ
Text: Figure 2 MOTS-c directly binds and activates CK2 in cell-free systems (A–C) Dot blot assays with (A) CK2 complex (contains both CK2α and CK2β subunits) immobilized, MOTS-c flowed over the membrane, and detected by MOTS-c antibody. (B–C) MOTS-c immobilized, CK2 complex flowed over the membrane, and detected by CK2α (B) and CK2β (C) antibodies. (D) CK2α or CK2β immobilized, MOTS-c flowed over the membrane, and detected by MOTS-c antibody. FO, flow over; IB, immunoblotting. (E): Surface plasmon resonance (Biacore assay) of MOTS-c (10 μg/mL) and CK2α (2.5 nM, 5.0 nM, 10 nM, and 20 nM). MOTS-c was immobilized on the sensor chip and CK2α flowed over the sensor chip. KD, dissociation constant. (F) Molecular docking simulation of the binding between MOTS-c and CK2α by using AlphaFold2. (G) CK2 activity assessed by kinase activity assay with/without MOTS-c in cell-free condition. […]
The kinetics of MOTS-c WT/K14Q (GenScript) and CK2α (GenScript)/β (IBL) were assessed by using surface plasmon resonance (Biacore T200, Cytiva). […] Then, since we detected the binding signal only with CK2α, CK2α was flowed (30 μL/min) over the sensor chip at 2.5 nM, 5.0 nM, 10 nM, and 20 nM in running buffer (0.01M HEPES, 0.15 M NaCl, 0.3 mM EDTA, and 0.05% tween). After each concentration of CK2α was assessed, CK2α was removed using 4 mM and 5 mM Sodium Hydroxide for MOTS-c and K14Q MOTS-c, respectively. […]

[2] = Plasma MOTS-c levels after MOTS-c administration; format: in vivo, mouse (C57BL/6J); settings: single IP 7.5 mg/kg, young mice, n = 5 per time point
Procedure: Figure 3 MOTS-c modulates CK2 activity in a tissue-specific manner (A) Experimental design of a single MOTS-c administration (7.5 mg/kg) experiment in young mice (n = 5 per time point). (B) Plasma MOTS-c levels after MOTS-c administration. ∗: p < 0.05 versus time 0. (C) Quantification of CK2 activity assessed by western blotting in each tissue shown in ([…]). (E–F) CK2 activity assessed by western blotting with p-CK2 substrate antibody in gastrocnemius muscle (D), epididymal fat (E), and liver (F) after MOTS-c administration. ∗p < 0.05, ∗∗p < 0.01 versus time 0 in same tissue. (G–I) MOTS-c detection following CK2α immunoprecipitation (IP) in gastrocnemius muscle (G), epididymal fat (H), and liver (I) 30 min after MOTS-c administration (7.5 mg/kg). The "-" indicates tissues from non-MOTS-c administered mice, while the "+" indicates tissues from MOTS-c administered mice. (J–K) CK2 activity after 10 min MOTS-c treatment (10 μM) in differentiated skeletal muscle (J) and adipocyte (K). Data are represented as mean ± SEM for (B, C, J, and K).
Acute MOTS-c administration experiment: Male C57BL/6J mice at 10–12 weeks of age were randomly assigned to one of the experimental time points: 0 min, 15 min, 30 min, or 180 min. MOTS-c ([…]) was administered by intraperitoneal injection. At each time point, plasma was collected under anesthesia with isoflurane. […]

Row | Structure (SMILES) | Muscle glucose uptake, CK2 inhibitor co-administered with MOTS-c ([1]; CX-4945 25 mg/kg + MOTS-c 7.5 mg/kg) | Muscle glucose uptake with CK2 inhibitor alone ([1]; CX-4945 25 mg/kg IP 2 h before insulin 0.75 U/kg, p = 0.053, n = 10-11 per group) | Reciprocal of KD (CK2α) | MOTS-c levels in plasma [2]
1 | O=C(O)c1ccc2c(c1)nc(Nc1cccc(Cl)c1)c1ccncc12 [CX-4945] | prevented the increase in muscle glucose uptake by MOTS-c | decreased muscle glucose uptake (p = 0.053) |  | 
2 | CC[C@H](C)[C@H](NC(=O)[C@H](Cc1ccc(O)cc1)NC(=O)CNC(=O)[C@H](CCSC)NC(=O)[C@H](CCC(=O)O)NC(=O)[C@H](CCC(N)=O)NC(=O)[C@H](Cc1c[nH]c2ccccc12)NC(=O)[C@H](CCCNC(=N)N)NC(=O)[C@@H](N)CCSC)C(=O)N[C@@H](Cc1ccccc1)C(=O)N[C@@H](Cc1ccc(O)cc1)C(=O)N1CCC[C@H]1C(=O)N[C@@H](CCCNC(=N)N)C(=O)N[C@@H](CCC(N)=O)C(=O)N[C@@H](CC(C)C)C(=O)N[C@@H](CCCNC(=N)N)C(=O)O [K14Q MOTS-c] (H-MRWQEMGYIFYPRQLR-OH) |  |  | 0.062 nM⁻¹ | 
3 | CC[C@H](C)[C@H](NC(=O)[C@H](Cc1ccc(O)cc1)NC(=O)CNC(=O)[C@H](CCSC)NC(=O)[C@H](CCC(=O)O)NC(=O)[C@H](CCC(N)=O)NC(=O)[C@H](Cc1c[nH]c2ccccc12)NC(=O)[C@H](CCCNC(=N)N)NC(=O)[C@@H](N)CCSC)C(=O)N[C@@H](Cc1ccccc1)C(=O)N[C@@H](Cc1ccc(O)cc1)C(=O)N1CCC[C@H]1C(=O)N[C@@H](CCCNC(=N)N)C(=O)N[C@@H](CCCCN)C(=O)N[C@@H](CC(C)C)C(=O)N[C@@H](CCCNC(=N)N)C(=O)O [MOTS-c] (H-MRWQEMGYIFYPRKLR-OH) |  |  | 1.0 nM⁻¹ | increased MOTS-c levels in plasma

— paper PMC11570452, “MOTS-c modulates skeletal muscle function by directly binding and activating CK2” (iScience, 2024)
